Reference: patent publication US20140357655A1, “SPIROINDOLINE DERIVATIVES AS GONADOTROPIN- RELEASING HORMONE RECEPTOR ANTAGONISTS” (Bayer Intellectual Property GmbH, priority 2012, published 2014)

Each molecule was assayed against T1, human GnRH receptor (Homo sapiens, UniProt P30968) (assay: IP-One HTRF assay with buserelin (at EC80) stimulation). Details: CHO cells stably expressing human GnRH receptor, read-out: Potency in IP-One HTRF assay, given as IC50.
T1 sequence (P30968 1-328): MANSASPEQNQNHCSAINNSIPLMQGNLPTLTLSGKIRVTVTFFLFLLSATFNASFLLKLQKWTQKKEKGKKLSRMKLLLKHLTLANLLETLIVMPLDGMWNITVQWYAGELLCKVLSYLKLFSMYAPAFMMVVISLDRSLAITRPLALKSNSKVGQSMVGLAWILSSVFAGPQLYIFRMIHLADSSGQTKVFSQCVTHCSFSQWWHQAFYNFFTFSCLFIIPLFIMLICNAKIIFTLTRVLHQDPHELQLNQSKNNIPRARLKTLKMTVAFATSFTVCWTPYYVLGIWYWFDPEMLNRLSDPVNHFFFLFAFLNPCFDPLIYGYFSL
Format: cell-based
Description: 2.3. IP-One HTRF® Assay By using homogenous time-resolved fluorescence resonance energy transfer (HTRF), the generation of one component of the GnRH—R signalling cascade can be measured. After stimulation of CHO cells stably expressing human GnRH receptor (established by Prof. Thomas Gudermann, currently University of Marburg, Germany; supplied as frozen cell aliquots by Cell Culture Services, Hamburg, Germany) with the EC80 of the GnRH agonist buserelin, Gq protein-coupled receptor signalling cascade is activated resulting in PLC-dependent cleavage of PIP2 to Inositol-1,4,5-triphosphate (IP3) and Diacylglycerol. The second messenger IP3 is degraded intracellularly to myo-inositol. Inhibition of the final degradation step from Inositol-1-phosphate (IP1) to myo-inositol by addition of lithium chloride leads to accumulation of IP1 in the cells. In cell lysates, IP1 can be detected via an antibody-based HTRF detection technology, where IP1 can displace the FRET acceptor IP1-d2 from binding by Terbium-labelled anti-IP1 antibody as donor resulting in a signal decrease. Compounds were tested for their capability of inhibiting GnRH—R activation by buserelin. For all IP-One HTRF® assays reagents of Cisbio Bioassays (IP-One Tb Jumbo kit, #62IPAPEJ; Cisbio Bioassays, Bagnols sur Cèze Cedex, France) were used.
For the assay, frozen cell aliquots were thawed and a cell suspension (3.33×10^6 cells/mL) containing IP1-d2 (dilution 1:40) was prepared and incubated at 37° C. After 1 h 3 μl of the cell suspension were added to 50 nl of a 100-fold concentrated solution of the test compound in DMSO pre-dispensed in a well of a white low-volume 384-well microtiter plate (Greiner Bio-One, Frickenhausen, Germany). […] Plates were incubated for 1 h at 37° C. and 5% carbon dioxide before the cells were lysed by adding 3 μl Terbium-labelled anti-IP1 antibody (1:40) diluted in Conjugate & Lysis buffer as supplied with the kit. After an incubation for 1 h at 22° C. to enable complete cell lysis and antibody binding to free IP1 or IP1-d2, plates were measured in an HTRF reader, e.g. a RUBYstar, PHERAstar (both BMG Labtechnologies, Offenburg, Germany) or a Viewlux (PerkinElmer LAS, Rodgau-Jügesheim, Germany).
From the fluorescence emissions at 665 nm (FRET) and at 620 nm (background signal of Terbium-antibody), the ratio (emission at 665 nm divided by emission at 620 nm) was calculated and the data were normalized (reaction without test compound=0% inhibition; all other assay components except agonist=100% inhibition). On the same microtiter plate, compounds were tested at 10 different concentrations in the range of 20 μM to 1 nM (20 μM, 6.7 μM, 2.2 μM, 0.74 μM, 0.25 μM, 82 nM, 27 nM, 9.2 nM, 3.1 nM and 1 nM; dilution series prepared before the assay at the level of the 100-fold conc. stock solutions by serial 1:3 dilutions in 100% DMSO) in duplicate values for each concentration. By using an in-house software, the IC50 values were calculated by a 4 parameter fit.

| SMILES | IC50 [nM] |
| --- | --- |
| CC1N(S(=O)(=O)c2ccc(F)cc2)c2ccc(C(=O)NCc3ncccc3Cl)cc2C12CCOCC2 (racemic) [Example 1, N-[(3-Chloropyridin-2-yl)methyl]-1-[(4-fluorophenyl)sulfonyl]-2-methyl-1,2,2′,3′,5′,6′-hexahydrospiro[indole-3,4′-pyran]-5-carboxamide] | 584 |
| O=C(NCc1ccccc1Cl)c1ccc2c(c1)C1(CCSCC1)C(C1CC1)N2S(=O)(=O)c1ccc(F)cc1 (racemic) [Example 12, N-(2-Chlorobenzyl)-2-cyclopropyl-1-[(4-fluorophenyl)sulfonyl]-1,2,2′,3′,5′,6′-hexahydrospiro[indole-3,4′-thiopyran]-5-carboxamide] | 186 |
| O=C(NCc1ncccc1Cl)c1ccc2c(c1)C1(CCS(=O)(=O)CC1)C(C1CC1)N2S(=O)(=O)c1ccc(F)cc1 (racemic) [Example 14, N-[(3-Chloropyridin-2-yl)methyl]-2-cyclopropyl-1-[(4-fluorophenyl)sulfonyl]-1,2,2′,3′,5′,6′-hexahydrospiro[indole-3,4′-thiopyran]-5-carboxamide 1′,1′-dioxide] | 245 |
| CC1N(S(=O)(=O)c2ccc(F)cc2)c2ccc(C(=O)NCc3ncccc3Cl)cc2C12CCOCC2 (single isomer, unassigned) [Example 1.1, N-[(3-Chloropyridin-2-yl)methyl]-1-[(4-fluorophenyl)sulfonyl]-2-methyl-1,2,2′,3′,5′,6′-hexahydrospiro[indole-3,4′-pyran]-5-carboxamide] | 146 |
| CC1N(S(=O)(=O)c2ccc(F)cc2)c2ccc(C(=O)NCc3ncccc3Cl)cc2C12CCOCC2 (single isomer, unassigned) [Example 1.2, N-[(3-Chloropyridin-2-yl)methyl]-1-[(4-fluorophenyl)sulfonyl]-2-methyl-1,2,2′,3′,5′,6′-hexahydrospiro[indole-3,4′-pyran]-5-carboxamide] | 19500 |
| CC1N(S(=O)(=O)c2ccc(F)cc2)c2ccc(C(=O)NCc3ccccc3Cl)cc2C12CCOCC2 (single isomer, unassigned) [Example 2.1, N-(2-chlorobenzyl)-1-[(4-fluorophenyl)sulfonyl]-2-methyl-1,2,2′,3′,5′,6′-hexahydrospiro[indole-3,4′-pyran]-5-carboxamide] | 9320 |
| CC1N(S(=O)(=O)c2ccc(F)cc2)c2ccc(C(=O)NCc3ccccc3Cl)cc2C12CCOCC2 (single isomer, unassigned) [Example 2.2, N-(2-chlorobenzyl)-1-[(4-fluorophenyl)sulfonyl]-2-methyl-1,2,2′,3′,5′,6′-hexahydrospiro[indole-3,4′-pyran]-5-carboxamide] | 83 |
| CC1N(S(=O)(=O)c2ccc(F)cc2)c2ccc(C(=O)NCc3ncccc3C(F)(F)F)cc2C12CCOCC2 (single isomer, unassigned) [Example 3.1, 1-[(4-fluorophenyl)sulfonyl]-2-methyl-N-{[3-(trifluoromethyl)pyridin-2-yl]methyl}-1,2,2′,3′,5′,6′-hexahydrospiro[indole-3,4′-pyran]-5-carboxamide] | 226 |
| CC1N(S(=O)(=O)c2ccc(F)cc2)c2ccc(C(=O)NCc3ncccc3C(F)(F)F)cc2C12CCOCC2 (single isomer, unassigned) [Example 3.2, 1-[(4-fluorophenyl)sulfonyl]-2-methyl-N-{[3-(trifluoromethyl)pyridin-2-yl]methyl}-1,2,2′,3′,5′,6′-hexahydrospiro[indole-3,4′-pyran]-5-carboxamide] | > 20000 |
| O=C(NCc1ccccc1Cl)c1ccc2c(c1)C1(CCSCC1)C(C1CC1)N2S(=O)(=O)c1ccc(F)cc1 (single isomer, unassigned) [Example 12.1, N-(2-Chlorobenzyl)-2-cyclopropyl-1-[(4-fluorophenyl)sulfonyl]-1,2,2′,3′,5′,6′-hexahydrospiro[indole-3,4′-thiopyran]-5-carboxamide] | 178 |
| O=C(NCc1ccccc1Cl)c1ccc2c(c1)C1(CCSCC1)C(C1CC1)N2S(=O)(=O)c1ccc(F)cc1 (single isomer, unassigned) [Example 12.2, N-(2-Chlorobenzyl)-2-cyclopropyl-1-[(4-fluorophenyl)sulfonyl]-1,2,2′,3′,5′,6′-hexahydrospiro[indole-3,4′-thiopyran]-5-carboxamide] | 3730 |
| O=C(NCc1ccccc1Cl)c1ccc2c(c1)C1(CC[S+]([O-])CC1)C(C1CC1)N2S(=O)(=O)c1ccc(F)cc1 (single isomer, unassigned) [Example 13.2, N-(2-Chlorobenzyl)-2-cyclopropyl-1-[(4-fluorophenyl)sulfonyl]-1,2,2′,3′,5′,6′-hexahydrospiro[indole-3,4′-thiopyran]-5-carboxamide 1′-oxide] | 383 |
| O=C(NCc1ncccc1Cl)c1ccc2c(c1)C1(CCS(=O)(=O)CC1)C(C1CC1)N2S(=O)(=O)c1ccc(F)cc1 (single isomer, unassigned) [Example 14.2, N-[(3-Chloropyridin-2-yl)methyl]-2-cyclopropyl-1-[(4-fluorophenyl)sulfonyl]-1,2,2′,3′,5′,6′-hexahydrospiro[indole-3,4′-thiopyran]-5-carboxamide 1′,1′-dioxide] | 5390 |
| O=C(NCc1ncccc1C(F)(F)F)c1ccc2c(c1)C1(CCS(=O)(=O)CC1)C(C1CC1)N2S(=O)(=O)c1ccc(F)cc1 (single isomer, unassigned) [Example 15.1, 2-cyclopropyl-1-[(4-fluorophenyl)sulfonyl]-N-{[3-(trifluoromethyl)pyridin-2-yl]methyl}-1,2,2′,3′,5′,6′-hexahydrospiro[indole-3,4′-thiopyran]-5-carboxamide 1′,1′-dioxide] | > 20000 |
| O=C(NCc1ncccc1C(F)(F)F)c1ccc2c(c1)C1(CCS(=O)(=O)CC1)C(C1CC1)N2S(=O)(=O)c1ccc(F)cc1 (single isomer, unassigned) [Example 15.2, 2-cyclopropyl-1-[(4-fluorophenyl)sulfonyl]-N-{[3-(trifluoromethyl)pyridin-2-yl]methyl}-1,2,2′,3′,5′,6′-hexahydrospiro[indole-3,4′-thiopyran]-5-carboxamide 1′,1′-dioxide] | 69 |
| O=C(NCc1ccc(F)cc1Cl)c1ccc2c(c1)C1(CCS(=O)(=O)CC1)C(C1CC1)N2S(=O)(=O)c1ccc(F)cc1 (single isomer, unassigned) [Example 16.1, N-(2-chloro-4-fluorobenzyl)-2-cyclopropyl-1-[(4-fluorophenyl)sulfonyl]-1,2,2′,3′,5′,6′-hexahydrospiro[indole-3,4′-thiopyran]-5-carboxamide 1′,1′-dioxide] | 62 |
| O=C(NCc1ccc(F)cc1Cl)c1ccc2c(c1)C1(CCS(=O)(=O)CC1)C(C1CC1)N2S(=O)(=O)c1ccc(F)cc1 (single isomer, unassigned) [Example 16.2, N-(2-chloro-4-fluorobenzyl)-2-cyclopropyl-1-[(4-fluorophenyl)sulfonyl]-1,2,2′,3′,5′,6′-hexahydrospiro[indole-3,4′-thiopyran]-5-carboxamide 1′,1′-dioxide] | 6840 |
| O=C(NCc1ncc(F)cc1Cl)c1ccc2c(c1)C1(CCS(=O)(=O)CC1)C(C1CC1)N2S(=O)(=O)c1ccc(F)cc1 (single isomer, unassigned) [Example 17.1, N-[(3-chloro-5-fluoropyridin-2-yl)methyl]-2-cyclopropyl-1-[(4-fluorophenyl)sulfonyl]-1,2,2′,3′,5′,6′-hexahydrospiro[indole-3,4′-thiopyran]-5-carboxamide 1′,1′-dioxide] | 139 |
